Assay results taken from ChEMBL document CHEMBL1201862, “PubChem BioAssay data set” (2004).
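Protocol summary: plate cells (96-well), add compound at 5 concentrations, incubate 48 h, interpolate endpoints linearly. Here, GI50 denotes the concentration required for 50% inhibition of growth.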 Activity calls are given as the source filed them. Cut-off read from the data, not from the text of the source: active = GI50 up to about 1.1 µM and inactive = higher.

Key:
Experiment in all cases: DTP human tumour cell line panel, 48 h
[1] = system: HOP-92
[2] = system: SNB-75
[3] = system: UACC-62
[4] = system: HT-29
[5] = system: A549
[6] = system: COLO 205
[7] = system: KM-20L2
[8] = system: HOP-62
[9] = system: RXF 393
[10] = system: SK-MEL-5
[11] = system: LOX IMVI
[12] = system: NCI-H522
[13] = system: M14
[14] = system: DMS-273
[15] = system: ACHN
[16] = system: NCI-H226
[17] = system: RXF 631
[18] = system: HCT-116
[19] = system: KM12
[20] = system: TK-10
[21] = system: DMS-114
[22] = system: NCI-H460
[23] = system: SN12C
[24] = system: OVCAR-3
[25] = system: SW-620
[26] = system: LXFL 529
[27] = system: OVCAR-4
[28] = system: SF-539
[29] = system: SK-OV-3
[30] = system: UO-31
[31] = system: SF-268
[32] = system: RPMI-8226
[33] = system: IGROV-1
[34] = system: K562
[35] = system: M19-MEL
[36] = system: OVCAR-8
[37] = system: Malme-3M
[38] = system: HOP-18
[39] = system: SNB-19
[40] = system: U-251
[41] = system: OVCAR-5
[42] = system: CCRF-CEM
[43] = system: XF498
[44] = system: SF-295
[45] = system: HCT-15
[46] = system: NCI-H23
[47] = system: EKVX
[48] = system: SK-MEL-28
[49] = system: SNB-78
[50] = system: DLD-1
[51] = system: SK-MEL-2
[52] = system: CAKI-1
[53] = system: UACC-257
[54] = system: MOLT-4
[55] = system: 786-0
[56] = system: HL-60
[57] = system: HCC 2998
[58] = system: A498
[59] = system: SR

COC(=O)C1=C(C(=O)OC)C2(C3C(SC)=CC(C)(C)CC3S1)N(Cc1ccccc1)CCN2Cc1ccccc1 (stereo not drawn)
GI50 [1]: < 0.01 µM (active) | GI50 [2]: > 100 µM (inactive) | GI50 [3]: > 100 µM (inactive) | GI50 [4]: > 100 µM (inactive) | GI50 [5]: > 100 µM (inactive) | GI50 [6]: > 100 µM (inactive) | GI50 [7]: > 100 µM (inactive) | GI50 [8]: > 100 µM (inactive) | GI50 [9]: 54.7 µM (inactive) | GI50 [10]: 65.5 µM (inactive) | GI50 [11]: > 100 µM (inactive) | GI50 [12]: > 100 µM (inactive) | GI50 [13]: > 100 µM (inactive) | GI50 [14]: > 100 µM (inactive) | GI50 [15]: 48.2 µM (inactive) | GI50 [16]: > 100 µM (inactive) | GI50 [17]: > 100 µM (inactive) | GI50 [18]: > 100 µM (inactive) | GI50 [19]: > 100 µM (inactive) | GI50 [20]: > 100 µM (inactive) | GI50 [21]: > 100 µM (inactive) | GI50 [22]: > 100 µM (inactive) | GI50 [23]: > 100 µM (inactive) | GI50 [24]: > 100 µM (inactive) | GI50 [25]: > 100 µM (inactive) | GI50 [26]: > 100 µM (inactive) | GI50 [27]: > 100 µM (inactive) | GI50 [28]: > 100 µM (inactive) | GI50 [29]: > 100 µM (inactive) | GI50 [30]: > 100 µM (inactive) | GI50 [31]: > 100 µM (inactive) | GI50 [32]: 18.3 µM (inactive) | GI50 [33]: > 100 µM (inactive) | GI50 [34]: 62.7 µM (inactive) | GI50 [35]: > 100 µM (inactive) | GI50 [36]: > 100 µM (inactive) | GI50 [37]: > 100 µM (inactive) | GI50 [38]: > 100 µM (inactive) | GI50 [39]: > 100 µM (inactive) | GI50 [40]: > 100 µM (inactive) | GI50 [41]: > 100 µM (inactive) | GI50 [42]: > 100 µM (inactive) | GI50 [43]: > 100 µM (inactive) | GI50 [44]: > 100 µM (inactive) | GI50 [45]: > 100 µM | GI50 [46]: > 100 µM (inactive) | GI50 [47]: > 100 µM (inactive) | GI50 [48]: > 100 µM (inactive) | GI50 [49]: > 100 µM (inactive) | GI50 [50]: > 100 µM (inactive) | GI50 [51]: > 100 µM (inactive) | GI50 [52]: > 100 µM (inactive) | GI50 [53]: > 100 µM (inactive) | GI50 [54]: > 100 µM (inactive) | GI50 [55]: > 100 µM (inactive)

O=C1c2ccccc2C(=O)C12CCc1ccccc12
GI50 [1]: > 100 µM (inactive) | GI50 [2]: 40.3 µM (inactive) | GI50 [3]: > 100 µM (inactive) | GI50 [4]: > 100 µM (inactive) | GI50 [5]: > 100 µM (inactive) | GI50 [6]: > 100 µM (inactive) | GI50 [7]: > 100 µM (inactive) | GI50 [8]: > 100 µM (inactive) | GI50 [9]: > 100 µM (inactive) | GI50 [11]: > 100 µM (inactive) | GI50 [13]: > 100 µM (inactive) | GI50 [14]: > 100 µM (inactive) | GI50 [15]: > 100 µM (inactive) | GI50 [56]: 23.6 µM (inactive) | GI50 [17]: > 100 µM (inactive) | GI50 [20]: > 100 µM (inactive) | GI50 [21]: > 100 µM (inactive) | GI50 [22]: > 100 µM (inactive) | GI50 [23]: > 100 µM (inactive) | GI50 [24]: > 100 µM (inactive) | GI50 [25]: > 100 µM (inactive) | GI50 [26]: > 100 µM (inactive) | GI50 [27]: > 100 µM (inactive) | GI50 [29]: > 100 µM (inactive) | GI50 [30]: > 100 µM (inactive) | GI50 [31]: > 100 µM (inactive) | GI50 [33]: > 100 µM (inactive) | GI50 [34]: 83.4 µM (inactive) | GI50 [35]: > 100 µM (inactive) | GI50 [57]: > 100 µM (inactive) | GI50 [36]: > 100 µM (inactive) | GI50 [37]: > 100 µM (inactive) | GI50 [38]: > 100 µM (inactive) | GI50 [40]: > 100 µM (inactive) | GI50 [42]: > 100 µM (inactive) | GI50 [43]: > 100 µM (inactive) | GI50 [44]: > 100 µM (inactive) | GI50 [45]: > 100 µM | GI50 [46]: > 100 µM (inactive) | GI50 [47]: > 100 µM (inactive) | GI50 [48]: > 100 µM (inactive) | GI50 [49]: > 100 µM (inactive) | GI50 [50]: > 100 µM (inactive) | GI50 [52]: > 100 µM (inactive) | GI50 [54]: 4.18 µM (inactive) | GI50 [55]: > 100 µM (inactive)

C/C(CCc1ccccc1)=N\NC(N)=S
GI50 [1]: > 100 µM (inactive) | GI50 [2]: 76.4 µM (inactive) | GI50 [3]: > 100 µM (inactive) | GI50 [4]: 27.8 µM (inactive) | GI50 [5]: > 100 µM (inactive) | GI50 [6]: > 100 µM (inactive) | GI50 [7]: > 100 µM (inactive) | GI50 [8]: > 100 µM (inactive) | GI50 [9]: 42.3 µM (inactive) | GI50 [10]: 95.3 µM (inactive) | GI50 [11]: > 100 µM (inactive) | GI50 [13]: > 100 µM (inactive) | GI50 [14]: > 100 µM (inactive) | GI50 [15]: > 100 µM (inactive) | GI50 [56]: > 100 µM (inactive) | GI50 [16]: > 100 µM (inactive) | GI50 [17]: > 100 µM (inactive) | GI50 [18]: > 100 µM (inactive) | GI50 [58]: > 100 µM (inactive) | GI50 [19]: > 100 µM (inactive) | GI50 [20]: > 100 µM (inactive) | GI50 [21]: 39 µM (inactive) | GI50 [22]: > 100 µM (inactive) | GI50 [23]: > 100 µM (inactive) | GI50 [24]: > 100 µM (inactive) | GI50 [25]: > 100 µM (inactive) | GI50 [26]: 43 µM (inactive) | GI50 [27]: > 100 µM (inactive) | GI50 [28]: 37.2 µM (inactive) | GI50 [29]: > 100 µM (inactive) | GI50 [30]: > 100 µM (inactive) | GI50 [31]: > 100 µM (inactive) | GI50 [32]: 27.3 µM (inactive) | GI50 [33]: > 100 µM (inactive) | GI50 [34]: > 100 µM (inactive) | GI50 [35]: 74.8 µM (inactive) | GI50 [57]: > 100 µM (inactive) | GI50 [36]: > 100 µM (inactive) | GI50 [37]: > 100 µM (inactive) | GI50 [38]: > 100 µM (inactive) | GI50 [59]: 75.2 µM (inactive) | GI50 [40]: > 100 µM (inactive) | GI50 [41]: > 100 µM (inactive) | GI50 [42]: 75.5 µM (inactive) | GI50 [43]: 43.4 µM (inactive) | GI50 [44]: > 100 µM (inactive) | GI50 [45]: > 100 µM | GI50 [46]: > 100 µM (inactive) | GI50 [47]: 72.4 µM (inactive) | GI50 [48]: > 100 µM (inactive) | GI50 [49]: > 100 µM (inactive) | GI50 [50]: > 100 µM (inactive) | GI50 [51]: > 100 µM (inactive) | GI50 [52]: > 100 µM (inactive) | GI50 [53]: > 100 µM (inactive) | GI50 [54]: 72.8 µM (inactive) | GI50 [55]: > 100 µM (inactive)
